Patent US20230364153A1, “METHOD FOR DIRECT REPROGRAMMING FROM SOMATIC CELLS INTO PANCREATIC BETA CELLS BY USING MICRORNA, AND DIFFERENTIATION COMPOSITION” (Research & Business Foundation Sungkyunkwan University, priority 2020, published 2023)

Tests used:
[1] = test system: mouse embryonic fibroblasts (MEFs); assay: qRT-PCR of pancreatic lineage markers during three-stage direct reprogramming of MEFs; type: cell-based; conditions: stage-1 cells, single miRNA transfected, relative to the mimic (FIG. 2a)
Protocol: (§1) MEFs (5×10^4 cells/well per 12-well plate) were transfected using the jetMESSENGER (Polyplus-Transfection, Illkirch, France) reagent according to the manufacturer's instructions. The miRNA to be infected (200 nM) (QIAGEN, Hilden, Germany) was diluted in mRNA buffer and 2 μL of the jetMESSENGER reagent was added thereto. The mixture was incubated at room temperature for 20 minutes and then added to MEFs, and 24 hours thereafter, a stage-specific medium was added thereto.
For direct reprogramming of cells, knockout DMEM (KO-DMEM) (Gibco) was used as a basal medium. The knockout DMEM includes 15% knockout serum replacement (Gibco, Thermo Fisher Scientific, Inc., Waltham, MA, USA), 5% FBS (exosome depleted), 1% GlutaMax (Gibco, Thermo Fisher Scientific, Inc., Waltham, MA, USA), 1% Non-Essential Amino Acids (NEAA, Gibco, Thermo Fisher Scientific, Inc., Waltham, MA, USA), and 0.5 mM β-ME (Sigma Aldrich, Inc., Saint Louis, MO, USA).
The three-stage differentiation protocol of the present disclosure is as follows: Stage 1, differentiation from MEFs into pancreatic endoderm cells; Stage 2, differentiation of pancreatic endoderm cells into pancreatic progenitor-like cells; Stage 3, differentiation from pancreatic progenitor-like cells into beta-cell-like cells.
First, 5×10^4 MEF cells/well were seeded in a 12-well tissue culture plate of DMEM containing 10% FBS and 1×P/S for one day. The next day, a Stage 1 differentiation medium was added thereto. The Stage 1 differentiation medium contains 1 μM Bix-01294 (MedchemExpress, Monmouth Junction, NJ, USA), 280 μM 2-phospho-L-ascorbic acid (pVC) Sigma Aldrich, Inc., Saint Louis, MO, USA), and 50 ng/mL activin A (R&D Systems, Minneapolis, MI, USA). After addition of the medium, cells were maintained for 6 days. The medium used was replaced every 3 days. After 6 days, a Stage 2 differentiation medium was added for 4 days. […]
Statistical significance was determined by a two-way, paired student's t-test. […]

[2] = test system: mouse embryonic fibroblasts (MEF); assay: Proliferation / morphology of MEFs by bright field microscopy in stage-1 differentiation; type: cell-based; conditions: after 48 hours (FIG. 3c)
Protocol: FIGS. 3a to 3c confirm the proliferative ability of mouse embryonic fibroblasts (MEF) following transfection with a miRNA mimic and combinations of miRNAs (miR-127, miR-709, and miR-19b) of the present disclosure.
as §1

| Substance | induction of Pdx1 expression [1] [fold] | cell proliferation [2] |
| --- | --- | --- |
| miR-19b: microRNA, SEQ ID NO: 5, ugugcaaauccaugcaaaacuga (UGUGCAAAUCCAUGCAAAACUGA; listed as RNA, chemistry not given here) | 1.6 | highest cell proliferation |
| miR-127: microRNA, SEQ ID NO: 1, CUGAAGCUCAGAGGGCUCUGAU | 3.9 |  |
| miR-709: microRNA, SEQ ID NO: 2, GGAGGCAGAGGCAGGAGGA (listed as RNA, chemistry not given here) | 3.2 |  |
